Assay results published in US5494907A, “11-β substituted-19-nor steroids” (Roussel UCLAF, priority 1993, dated 1996).

Legend:
[1] = system: MCF-7 human breast tumour cells; test: Anti-proliferative activity on the growth of MCF-7 human breast tumour cells (DNA dosage); assay type: cell-based; details: MCF7, stimulated by EGF + PDGF, D7 to D9, read-out: IC50, concentration which inhibited by 50% the growth of the MCF-7 cells
Procedure: 2--Anti-proliferative activity on the growth of MCF-7 human breast tumour cells
The MCF-7 lines were maintained in culture in a base medium (according to 1) containing 5% of foetal calf serum at 37° C. under a humid atmosphere containing 5% CO2. The subconfluent cells were collected by trypsination (0.1% trypsin, 0.02% EDTA) and then rinsed by gentle centrifuging. A sample of the cells in suspension was counted with a Malassez cell.
The cells were resuspended in a base medium without phenol red in the presence of 5% of steroid-free FCS, and stimulated either by 0.1 nM of estradiol, or by 10 ng/ml of EGF+1 ng/ml of PDGF. The cells were seeded at a rate of 50,000 cells per well in multi-well plates (24 wells of 2.5 cm^2). Twenty-four hours after the seeding (DO), the product to be tested was added to the mixture in ethanolic solution (final concentration of ethanol: 0.1%), at a concentration of 10^-11 to 10^-6 M, the control wells receiving the same concentration of ethanol. The media containing the products were renewed every 48 hours. At the end of the experiment (D7 to D9), the mixture was extracted and the cells were immediately fixed with 250 microliters of methanol to dose the DNA. The anti-proliferative activity of the products was evaluated by their capacity to inhibit the increase of DNA relative to the control.
The DNA was dosed by a fluorimetric method using DABA (3,5diaminobenzoic acid) (according to 2): 200 microliters of DABA were added to each well and the plates were incubated for 45 minutes at 56° C. Then, 2 ml of 1N HCl were added and the fluorescence was measured using a fluorimeter (excitation wavelength: 408 nm, emission wavelength: 510 nm). The quantity of DNA per well was evaluated relative to a reference scale obtained by treating a calf thymus DNA standard under the same conditions.
The concentration in nM which inhibited by 50% the growth of the MCF-7 cells stimulated by EGF +PDGF (IC50) was determined in the manner indicated above.

[2] = molecular target: T1, hER (recombinant human estrogen receptor) (Homo sapiens, UniProt P03372); test: Relative bond affinity (RBA) on recombinant human estrogen receptor, displacement of tritiated estradiol; assay type: binding; details: for RBA hER: Estradiol = 100, 0° C., 24 hours; for affinity for the estrogen receptor (in words): conclusion in words
T1 construct: made in house; host or cells: SF9 insect cells, recombinant baculovirus
T1 sequence (P03372 1-595): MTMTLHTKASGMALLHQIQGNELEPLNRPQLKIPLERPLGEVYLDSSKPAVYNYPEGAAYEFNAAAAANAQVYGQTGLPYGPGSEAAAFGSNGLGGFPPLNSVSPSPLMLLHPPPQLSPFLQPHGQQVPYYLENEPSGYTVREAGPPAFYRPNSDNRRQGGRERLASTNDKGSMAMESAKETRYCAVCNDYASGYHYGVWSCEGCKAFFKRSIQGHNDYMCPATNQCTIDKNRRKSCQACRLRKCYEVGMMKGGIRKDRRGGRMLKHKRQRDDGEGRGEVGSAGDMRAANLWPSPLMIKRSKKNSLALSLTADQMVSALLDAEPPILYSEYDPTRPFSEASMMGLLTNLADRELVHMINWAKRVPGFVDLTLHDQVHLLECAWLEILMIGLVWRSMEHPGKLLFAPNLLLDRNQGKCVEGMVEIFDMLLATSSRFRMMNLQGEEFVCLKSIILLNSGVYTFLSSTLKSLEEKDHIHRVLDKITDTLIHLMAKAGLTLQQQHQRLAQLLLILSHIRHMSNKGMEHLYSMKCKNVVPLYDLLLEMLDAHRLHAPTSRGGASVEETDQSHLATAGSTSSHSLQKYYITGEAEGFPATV
Description: 1--Activity on the hormonal receptors using either the natural hormonal receptor of a rat (AR), or the recombinant human receptor (PR, GR and ER).
A supernatant of SF9 cells containing the recombinant human estrogen receptor was obtained by the process described above for the progesterone receptor using the cDNA fragment described in the HEGO expression vector by TORA et al. (EMBO Journal (1989), Vol. 8 N° 7, pp. 1981-1986), containing the region coding for the human estrogen receptor of "wild type" with a glycine in position 400. The cells were lysed in the lysis buffer (1). The supernatant was incubated at 0° C. for 24 hours with a constant concentration (T) of tritiated estradiol in the presence of increasing concentrations either of unlabelled estradiol (0-1000×10^-9 M), or of the unlabelled product under test (1 to 25000×10^-9 M). The concentration of bound tritiated estradiol (B) was then measured in each incubate by the technique of adsorption with carbon dextran.
Calculation of the relative bond affinity (RBA).
The following 2 curves were traced: percentage of bound tritiated hormone B/BO as a function of the logarithm of the concentration of unlabelled reference hormone or as a function of the logarithm of the concentration of the unlabelled product under test.
The straight line of the following equation was determined:
BO=Concentration of bound tritiated hormone in the absence of any unlabelled product,
B=Concentration of bound tritiated hormone in the presence of a concentration X of unlabelled product,
B min=Concentration of bound tritiated hormone in the presence of a large excess of cold reference hormone (500 nM). The intersections of the straight line I50 and the curves allowed the evaluation of the concentrations of unlabelled reference hormone (CH) and of the unlabelled product under test (CX) which inhibited by 50% the specific binding of the tritiated hormone on the receptor.
The relative bond affinity (RBA) of the product under test was determined by the equation:
The RBA's of the reference products estradiol, progesterone, dexamethasone and testosterone were arbitrarily taken to be equal to 100.

| SMILES | IC50 [1] [nM] | RBA hER [2] | affinity for the estrogen receptor (in words) [2] |
| --- | --- | --- | --- |
| CCCCNS(=O)(=O)CCCCCOc1ccc([C@H]2C[C@]3(C)[C@@H](O)CC[C@H]3[C@@H]3CCc4cc(O)ccc4[C@H]32)cc1 [Example 2, N-butyl-5-[4-(Δ1,3,5(10)-estratrien-3,17β-diol-11β-yl)phenoxy]-pentanesulfonamide] | 0.016 | 21 | marked affinity |
| CCCCN(C)S(=O)(=O)CCCCCOc1ccc([C@H]2C[C@]3(C)[C@@H](O)CC[C@H]3[C@@H]3CCc4cc(O)ccc4[C@H]32)cc1 [Example 7, N-butyl-5-[4-(Δ1,3,5(10)-estratrien-3,17β-diol-11β-yl)phenoxy]-N-methyl-pentanesulfonamide] | 0.015 | 4 |  |
| CN(CC(F)(F)C(F)(F)C(F)(F)F)S(=O)(=O)CCCCCOc1ccc([C@H]2C[C@]3(C)[C@@H](O)CC[C@H]3[C@@H]3CCc4cc(O)ccc4[C@H]32)cc1 [Example 8, 5-[4-(Δ1,3,5(10)-estratrien-3,17β-diol-11βyl)-Phenoxy]-N-(2,2,3,3,4,4,4-heptafluorobutyl)-N-methyl-pentanesulfonamide] | 0.026 | 19 | marked affinity |
